Results from patent publication US20070142462A1, “Method of Treating Cancer” (The University of Utah, priority 2000, published 2007).

What was measured:
Assay type in all cases: cell-based, human
M1619 melanoma cells = assay: MTT proliferation assay, M1619 melanoma; conditions: for Proliferation of M1619 melanoma cells (MTT, A540): 10% FBS, agents added at plating, 48 hours (ebselen 72 hours)
Protocol: Measurement of Proliferation in Cell Cultures. Proliferation of cultured cells was quantitated using a previously reported calorimetric method based upon metabolic reduction of the soluble yellow tetrazolium dye 3-[4,5-dimethylthiazol]-2yl-2,5-diphenyl tetrazolium bromide (MTT) to its insoluble purple formazan by the action of mitochondrial succinyl dehydrogenase. […] This assay empirically distinguishes between dead and living cells. For proliferation studies, cells were seeded into 24-well uncoated plastic plates (Costar) at 15,000-50,000 cells per well and cultured with respective media and mitogens. After 24-96 hours, medium was removed, cells were washed twice with 1 ml of sterile Dulbecco's modified phosphate buffered saline without Ca^2+ or Mg^2+ (DPBS), the medium was replaced with 1 ml/well fresh medium containing 100 μg/ml MTT, and plates were incubated an additional hour. MTT-containing medium was removed, 0.5 ml dimethylsulfoxide (DMSO) was added to each well, and the absorbance of the solubilized purple formazan dye was measured at 540 nm. A total of 4-6 wells was studied at each treatment condition. Preliminary studies were performed with 50-200 μg/ml MTT incubated for 15 min to 3 hours to determine the optimum concentration and incubation time at which the rate of conversion was linear and proportional to the number of cells present.
(§1) Cell Culture Treatments. The effect of antioxidant treatments on proliferation of malignant cell lines was studied in cultures stimulated with 10% FBS. Cell numbers were quantitated by the MTT assay 24-72 hours later. In some experiments, antioxidants were added immediately after cells were plated. In other experiments, cells were plated and allowed to grow for 24 hours before fresh media with antioxidants was added, and cell numbers were studied by the MTT assay 48 hours later.
A. M1619 melanoma cells stimulated with 10% fetal bovine serum (FBS) were plated at a density of 50,000 cells per well and antioxidants were added to wells at the indicated concentrations (mM or U/ml). After 48 hours, proliferation was quantitated by assessing the cell number-dependent reduction of the soluble yellow tetrazolium dye 3-[4,5-dimethylthiazol]-2yl-2,5-diphenyl tetrazolium bromide (MTT) to its insoluble formazan, measured as the absorbance at 540 nm (A540). The antioxidants tested included no antioxidant (control, i.e., FBS alone), 1000 U/ml SOD, 20 mM NAC, 500 U/ml, 1000 U/ml, and 3000 U/ml of catalase, and boiled […] catalase.
B. In a separate experiment, 2 μl/well of DMSO (served as control), 5 μM, 10 μM, and 25 μM Ebselen were tested on M1619 melanoma cells as described above, except that the cells were cultured for 72 hours before proliferation was measured.
C. 3000 U/ml Catalase, 2 μl/well DMSO, 25 μM Ebselen, and 50 μM Ebselen were tested as described above except that the compounds were added 24 hours after M1619 cells were plated. After the addition of antioxidants, the cells were incubated for an additional 48 hours and cell proliferation was quantitated. […]

M1619 cells = assay: Ferricytochrome c reduction (O2− generation) by M1619 cells; conditions: 160 μM ferricytochrome c; capsaicin 100 μM; dicumarol 250 μM pre-treatment 60 min; other inhibitors as
Protocol: Measurement of Reactive Oxygen Species. Superoxide (O2^−) generation was measured by the technique of superoxide dismutase (SOD) inhibitable reduction of ferricytochrome c, employing a modification allowing absorbance reading with an automatic enzyme immunoassay reader. See Friovich, I. in Handbook of Methods for Oxygen Radical Research (Greenwald, R. A., ed.), pp 121-122, CRC Press, Boca Raton, Fla., 1985; Pick, E. et al. J. Immunol. Methods 46:211-226 (1981). Confluent cells grown on 24-well plates were washed with DPBS, and incubated in 5% CO2/air at 37° C. with 160 μM ferricytochrome c in total volume of 550 μl of sodium bicarbonate-containing Krebs-Heinseleit buffer, or Hanks Balanced Salt Solution (HBSS), with and without copper-zinc SOD (1,000 units/ml). See Nozik-Grayck, et al., Am J. Physiol. 273 (17):L296-L304 (1997). The absorbance of each well was measured at 550 nm initially and 3-24 hours later using an ELx800 UV automated microplate reader (Biotek Instruments, Highland Park, Vt.). Monolayers were then washed with DPBS, and cell protein was measured using the BCA protein assay (Pierce). O2^− generation, normalized to cell protein, was computed from the Beer-Lambert relationship, as the quotient of SOD-inhibitable increase absorbance over time divided by the difference between the molar extinction coefficients for ferricytochrome c and ferrocytochrome c (ΔEM=2.1×10^4 M^−1 cm^−1). See Bashford, in Spectrophotometry & Spectrofluorimetry. A Practical Approach (Harris, D. A., and Bashford, C. L., eds) pp. 1-22, IRL Press, Washington, D.C., 1987; Friovich, I. in Handbook of Methods for Oxygen Radical Research (Greenwald, R. A., ed) pp 121-122, CRC Press, Boca Raton, Fla., 1985. […].
A. Capsaicin inhibits ferricytochrome c reduction. M1619 cells grown on 24-well plates were washed with DPBS, and incubated in 5% CO2/air at 37° C. with 160 μM ferricytochrome c in total volume of 550 μl of HBSS with or without the quinone analog capsaicin (100 μM final concentration) added in 5 μl/ml of ethanol. The absorbance of each well was measured at 550 nm initially and 3 hours later using an ELx800 UV automated microplate reader (Biotek Instruments, Highland Park, Vt.). The results are illustrated in FIG. 8A.
. […]. The results are illustrated in FIG. 9A.

NF-κB = assay: EMSA of constitutive nuclear NF-κB DNA binding, M1619; conditions: 24 hours, catalase 3,000 U/ml, NAC 20 mM, Ebselen 25 μM, dicumarol 250 μM
Source text: Electrophoretic Mobility Shift Assays (EMSAs). […] J. Respir.

Melanoma M1585 cells = assay: MTT proliferation assay, M1585 melanoma; conditions: Homo sapiens; Ebselen 25 μM; 10% FBS; 48 hours; mean±SE vs FBS+DMSO control; read-out: Percent Growth Inhibition
Protocol: (§2) Measurement of Proliferation in Cell Cultures. […] This assay empirically distinguishes between dead and living cells.
as §1
(§3) Cells stimulated with 10% FBS were plated at a density of 50,000 cells per well. DMSO and antioxidants were added to cell wells at the indicated concentrations. […] Each value represents a mean of at least 4 experiments.

[1] = tested on: breast carcinoma MDA-MB-453 cells; assay: MTT proliferation assay, MDA-MB-453 breast carcinoma; conditions: Homo sapiens, MDA-MB-453; Ebselen 25 μM; 10% FBS; 72 hours; mean±SE vs FBS+DMSO control; read-out: Percent Growth Inhibition
Protocol: as §2, §1, §3

[2] = tested on: Adeno-squamous lung carcinoma NCI-H596 cells; assay: MTT proliferation assay, NCI-H596 lung carcinoma; conditions: Homo sapiens, NCI-H596; Ebselen 25 μM; 10% FBS; 48 hours; mean±SE vs FBS+DMSO control; read-out: Percent Growth Inhibition
Protocol: as §2, §1, §3

[3] = tested on: LNCaP.FGC prostate adenocarcinoma cells; assay: MTT proliferation assay, LNCaP.FGC prostate adenocarcinoma; conditions: Homo sapiens; Ebselen 25 μM; 10% FBS; 48 hours; mean±SE vs FBS+DMSO control; read-out: Percent Growth Inhibition
Protocol: as §2, §1, §3

p65 component of NF-κB = assay: Immunohistochemical localization of p65 in M1619 cells; conditions: 24 hours, catalase 3,000 U/ml, apocynin 150 μg/ml, dicumarol 250 μM
Protocol: The effect of antioxidants on nuclear activation of NF-κB was studied by incubating near confluent (70%) cell cultures with antioxidant treatments for 1-48 hours. Nuclear protein was harvested, and EMSAs were performed using DNA consensus binding sequences, or nuclear translocation of the p65 component of NF-κB was studied by immunoperoxidase staining, as outlined below.
Immunohistochemical Localization of NF-κB. Cells grown on sterile coverslips and treated with catalase 3,000 U/ml, apocynin 150 μg/ml, or DPBS or DMSO vehicles for 24 h were fixed for 20 min on ice with 4% paraformaldehyde in DPBS with protease inhibitors, PI [Sigma protease inhibitor cocktail, 10 μl/ml, containing 4-(2-aminoethyl)benzensulfonyl fluoride (AEBSF), pepstatin A, trans-epoxysuccinyl-L-leucylamindo-(guanidino)butane (E-64), bestatin, leupeptin and aprotinin]. Cells were permeabilized by treating for 2 min with 0.1% NP-40 in DPBS/PI, washed once with cold DPBS and fixed as before for 10 min. Coverslips were incubated in 3% hydrogen peroxide for 30 min to suppress any remaining peroxidase, and washed three times in cold DPBS. The permeabilized and fixed cells were blocked for 2 hours with 2% BSA in DPBS on ice and incubated overnight at 4° C. with 1 μg/ml of anti-p65 antibody (Santa Cruz) diluted in 0.1% BSA/DPBS. Unbound anti-p65 was washed away with 2% BSA/DPBS and bound antibody was stained by incubation with biotinylated goat anti-rabbit immunoglobulin diluted 1:50 in 0.1% BSA/DPBS for 45 min on ice. Excess secondary antibody was washed away by 3 washes with 2% BSA/DPBS on ice. After washing, the cells were incubated with a streptavidin-biotin-peroxidase complex at room temperature for 1 hr, washed again, and incubated in 0.03% wt/vol 3-3′diaminobenzidine with 0.003% vol/vol hydrogen peroxide until a brown reaction product could be seen. Cells were then counterstained with eosin and mounted on glass slides before viewing under light microscopy. […]

GRO-α = GRO-α ELISA in culture medium; conditions: M1619; dicumarol 24 hours
Protocol: To study the impact of inhibiting NF-κB activation with antioxidants, cellular expression of the autocrine growth factor GRO-α was studied in near confluent monolayers of M1619 cells grown in 24-well plates. Cells were either treated with fresh complete medium or fresh medium containing 25 μM ebselen. After 24 hours, supernatants were harvested, microcentrifuged to remove cellular debris and frozen at −20° C. until GRO-α measurement as outlined below.
Measurement of GRO-α Expression. GRO-α was measured in culture medium from untreated and ebselen treated cells using a commercial ELISA purchased from R&D Systems, Minneapolis, Minn. This assay could not be used to detect GRO-α production by catalase treated cells because of interference in the peroxidase-based ELISA by catalase in the cell supernatant.
[…]. After 24 hours, GRO-α concentration was measured in media.

Structure (SMILES) | Proliferation of M1619 melanoma cells (MTT, A540) (M1619 melanoma cells) | ferricytochrome c reduction by M1619 cells (M1619 cells) | other results
COc1ccc2c(c1)c(CC(=O)O)c(C)n2C(=O)c1ccc(Cl)cc1 [indomethacin] | Neither cellular reduction of ferricytochrome c nor proliferation were reduced | Neither cellular reduction of ferricytochrome c nor proliferation were reduced | 
Oc1ncnc2[nH]ncc12 [allopurinol] | Neither cellular reduction of ferricytochrome c nor proliferation were reduced | Neither cellular reduction of ferricytochrome c nor proliferation were reduced | 
O=c1c2ccccc2[se]n1-c1ccccc1 [Ebselen, 2-phenyl-1,2-benzisoselenazol-3(2H)-one] | dramatically reduced |  | constitutive NF-κB DNA binding activity in nuclear protein (NF-κB): substantially reduced; inhibition at 25 µM (Melanoma M1585 cells): 94 ± 2%; Proliferation of M1619 melanoma cells, agents added 24 hours after plating (M1619 melanoma cells; catalase 3000 U/ml, Ebselen 25 and 50 μM, further 48 hours): antiproliferative; inhibition at 25 µM [1]: 69 ± 4%; inhibition at 25 µM [2]: 57 ± 2%; inhibition at 25 µM [3]: 100%
N=C(NCCC[C@H](N)C(=O)O)N[N+](=O)[O-] [ω-nitro-L-arginine, Nω-nitro-L-arginine] | Neither cellular reduction of ferricytochrome c nor proliferation were reduced | Neither cellular reduction of ferricytochrome c nor proliferation were reduced | 
c1ccc2c(c1)[I+]c1ccccc1-2 [diphenylene iodonium chloride] | significantly reduced proliferation |  | 
COc1cc(CNC(=O)CCCC/C=C/C(C)C)ccc1O [capsaicin, 8-methyl-N-vanillyl-6-noneamide] | significantly reduced proliferation | significantly decreased | 
C=C(C)[C@H]1Cc2c(ccc3c2O[C@@H]2COc4cc(OC)c(OC)cc4[C@@H]2C3=O)O1 [retenone] | Neither cellular reduction of ferricytochrome c nor proliferation were reduced | Neither cellular reduction of ferricytochrome c nor proliferation were reduced | 
CN/C(=N/CCSCc1nc[nH]c1C)NC#N [cimetidine] | Neither cellular reduction of ferricytochrome c nor proliferation were reduced | Neither cellular reduction of ferricytochrome c nor proliferation were reduced | 
CC(=O)N[C@@H](CS)C(=O)O [N-acetylcysteine] | reduced proliferation |  | 
O=c1oc2ccccc2c(O)c1Cc1c(O)c2ccccc2oc1=O [Dicumarol, 3,3′-methylenebis[4-hydroxy-2H-1-benzopyran-2-one]] |  | significantly decreased | anti-p65 staining in nuclei (nuclear translocation of NF-κB) (p65 component of NF-κB): little staining in nuclei; GRO-α protein expression (GRO-α): dramatic reduction
COc1cc(C(C)=O)ccc1O [apocynin, 4′-hydroxy-3′-methoxy-acetophenone] | significantly reduced proliferation |  | anti-p65 staining in nuclei (nuclear translocation of NF-κB) (p65 component of NF-κB): little staining in nuclei
